Test results as given in US20250034125A1, “COMPOUNDS AND USES THEREOF” (JANSSEN PHARMACEUTICA NV, priority 2019, published 2025).
Where two headings read alike, the source gives them in different places.

How the values were obtained:
SCD1 = biological target: T1, SCD1 (Homo sapiens, UniProt O00767); assay: Growth inhibition of yeast (ole1Δ) expressing human SCD1 as the sole desaturase; type: cell-based
T1 construct: host or cells: Saccharomyces cerevisiae ole1Δ strain (W303 pdr1Δ pdr3Δ background), plasmid pRS316, TDH3 promoter
T1 sequence (O00767 1-359): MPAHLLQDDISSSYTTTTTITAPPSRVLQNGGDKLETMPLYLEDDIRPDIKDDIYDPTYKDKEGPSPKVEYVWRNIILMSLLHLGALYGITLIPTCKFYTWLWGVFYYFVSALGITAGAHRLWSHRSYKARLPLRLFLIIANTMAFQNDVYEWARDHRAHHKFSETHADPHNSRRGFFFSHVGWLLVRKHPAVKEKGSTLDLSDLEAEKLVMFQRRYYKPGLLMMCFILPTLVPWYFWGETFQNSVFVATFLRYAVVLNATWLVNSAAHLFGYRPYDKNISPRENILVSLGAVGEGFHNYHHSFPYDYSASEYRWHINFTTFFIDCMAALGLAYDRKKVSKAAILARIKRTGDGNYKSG

SCD5 = biological target: T2, SCD5 (Homo sapiens, UniProt Q86SK9); assay: Growth inhibition of yeast (ole1Δ) expressing human SCD5 as the sole desaturase; type: cell-based
T2 construct: host or cells: Saccharomyces cerevisiae ole1Δ strain (W303 pdr1Δ pdr3Δ background), plasmid pRS316, TDH3 promoter
T2 sequence (Q86SK9 1-330): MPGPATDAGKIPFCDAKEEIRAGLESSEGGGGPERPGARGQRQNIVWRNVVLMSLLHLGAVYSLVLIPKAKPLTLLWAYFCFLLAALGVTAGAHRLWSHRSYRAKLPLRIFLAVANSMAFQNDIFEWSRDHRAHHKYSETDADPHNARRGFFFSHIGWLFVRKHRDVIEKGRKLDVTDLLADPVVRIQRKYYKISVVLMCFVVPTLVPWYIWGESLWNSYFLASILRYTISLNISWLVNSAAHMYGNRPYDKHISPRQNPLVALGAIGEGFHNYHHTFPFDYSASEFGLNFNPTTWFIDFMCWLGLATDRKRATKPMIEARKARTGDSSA

[1] = yeast strain with SCD1 plasmid, OD600 growth read at 40 h, read-out: SCD1 IC50
[2] = yeast strain with SCD5 plasmid, OD600 growth read at 40 h, read-out: SCD5 IC50

Structure (SMILES) | IC50 (SCD1; [1]) [nM] | IC50 (SCD5; [2]) [nM] | IC50 (SCD1) [nM] | IC50 (SCD5) [nM]
Cn1cc(NC(=O)N2CCC(Cc3cc(F)ccc3F)CC2)ccc1=O [Compound 10] | > 45000 | > 45000 | – | –
Cn1nc(NC(=O)N2CCC(Oc3cccc(F)c3C(F)(F)F)CC2)ccc1=O [Compound 84] | 430 | 170 | – | –
Cn1nc(NC(=O)N2CCC(F)(Cc3cccc(F)c3)CC2)ccc1=O [Compound 45, 4-fluoro-4-(3-fluorobenzyl)-N-(1-methyl-6-oxo-1,6-dihydropyridazin-3-yl)piperidine-1-carboxamide] | 1680 | 220 | – | –
Cn1nc(-c2nc(N3CCC(Oc4cc(F)cc(F)c4)CC3)no2)ccc1=O [Compound 111, 6-(3-(4-(3,5-difluorophenoxy)piperidin-1-yl)-1,2,4-oxadiazol-5-yl)-2-methylpyridazin-3(2H)-one] | > 45000 | 610 | – | –
Cn1nc(CC(=O)N2CCC(Cc3cc(F)cc(F)c3)CC2)ccc1=O [Compound 38, 6-(2-(4-(3,5-difluorobenzyl)piperidin-1-yl)-2-oxoethyl)-2-methylpyridazin-3(2H)-one] | 17200 | 6370 | – | –
Cn1nc(NC(=O)N2CCC(Cc3cc(F)c(F)c(F)c3)CC2)ccc1=O [Compound 62, N-(1-methyl-6-oxo-1,6-dihydropyridazin-3-yl)-4-(3,4,5-trifluorobenzyl)piperidine-1-carboxamide] | 390 | 20 | – | –
Cn1nc(NC(=O)N2CCC(F)(Cc3cc(F)c(F)c(Cl)c3)CC2)ccc1=O [Compound 66, 4-(3-chloro-4,5-difluorobenzyl)-4-fluoro —N-(1-methyl-6-oxo-1,6-dihydropyridazin-3-yl)piperidine-1-carboxamide] | 6500 | 920 | – | –
Cn1nc(NC(=O)N2CCC=C(c3ccc(Cl)cc3)CC2)ccc1=O [Compound 133, 4-(4-chlorophenyl)-N-(1-methyl-6-oxo-1,6-dihydropyridazin-3-yl)-2,3,6,7-tetrahydro-1H-azepine-1-carboxamide] | > 45000 | > 45000 | – | –
Cn1nc(NC(=O)N2CCC(Cc3ccc(F)c(C#N)c3)CC2)ccc1=O [Compound 58, 4-(3-cyano-4-fluorobenzyl)-N-(1-methyl-6-oxo-1,6-dihydropyridazin-3-yl)piperidine-1-carboxamide] | > 45000 | 10400 | – | –
O=c1ccc(-c2noc(N3CCC(Cc4cc(F)cc(F)c4)CC3)n2)c[nH]1 [Compound 2] | > 45000 | > 45000 | – | –
Cn1cc(CC(=O)N2CCC(Oc3cccc(Cl)c3)CC2)ccc1=O [Compound 5, 5-(2-(4-(3-chlorophenoxy)piperidin-1-yl)-2-oxoethyl)-1-methylpyridin-2(1H)-one] | > 45000 | > 45000 | – | –
Cn1nc(NC(=O)N2CCC(Cc3cccc(C#N)c3Cl)CC2)ccc1=O [Compound 56, 4-(2-chloro-3-cyanobenzyl)-N-(1-methyl-6-oxo-1,6-dihydropyridazin-3-yl)piperidine-1-carboxamide] | > 45000 | > 45000 | – | –
Cn1nc(NC(=O)N2CCC(Oc3cccc(C#N)c3Cl)CC2)ccc1=O [Compound 87, 4-(2-chloro-3-cyanophenoxy)-N-(1-methyl-6-oxo-1,6-dihydropyridazin-3-yl)piperidine-1-carboxamide] | > 45000 | > 45000 | – | –
Cn1cc(CC(=O)N2CCC(Cc3cccc(Cl)c3)CC2)ccc1=O [Compound 4, 5-(2-(4-(3-chlorobenzyl)piperidin-1-yl)-2-oxoethyl)-1-methylpyridin-2(1H)-one] | > 45000 | 24700 | – | –
Cn1nc(NC(=O)N2CCC(F)(Cc3cccc(Cl)c3)CC2)ccc1=O [Compound 46] | 640 | 30 | – | –
Cn1cc(NC(=O)N2CCC(Cc3ccc(F)c(F)c3)CC2)ccc1=O [Compound 7] | > 45000 | 5010 | – | –
Cn1nc(NC(=O)N2CCC(F)(Cc3cc(F)cc(F)c3)CC2)ccc1=O [Compound 59, 4-(3,5-difluorobenzyl)-4-fluoro —N-(1-methyl-6-oxo-1,6-dihydropyridazin-3-yl)piperidine-1-carboxamide] | > 45000 | 11000 | – | –
Cn1nc(NC(=O)N2CCC(COc3ccccc3C(F)(F)F)CC2)ccc1=O [Compound 100, N-(1-methyl-6-oxo-1,6-dihydropyridazin-3-yl)-4-((2-(trifluoromethyl)phenoxy)methyl)piperidine-1-carboxamide] | 4490 | 220 | – | –
O=C(Cc1ccc(=O)[nH]n1)N1CCC(Oc2cccc(Cl)c2)CC1 [Compound 36, 6-(2-(4-(3-chlorophenoxy)piperidin-1-yl)-2-oxoethyl)pyridazin-3(2H)-one] | 25500 | 5350 | – | –
Cn1nc(NC(=O)N2CCC(Oc3ccc(C(F)(F)F)c(F)c3)CC2)ccc1=O [Compound 88, 4-(3-fluoro-4-(trifluoromethyl)phenoxy)-N-(1-methyl-6-oxo-1,6-dihydropyridazin-3-yl)piperidine-1-carboxamide] | 70 | 30 | – | –
Cn1nc(-c2nnc(N3CCC(Cc4cc(F)cc(F)c4)CC3)s2)ccc1=O [Compound 121, 6-(5-(4-(3,5-difluorobenzyl)piperidin-1-yl)-1,3,4-thiadiazol-2-yl)-2-methylpyridazin-3(2H)-one] | 180 | 10 | – | –
Cc1cc(NC(=O)N2CCC(Cc3ccc(F)c(F)c3)CC2)nn(C)c1=O [Compound 129] | 310 | 80 | – | –
Cc1cc(NC(=O)N2CCC(Oc3ccc(F)c(F)c3)CC2)nn(C)c1=O [Compound 127] | 200 | 200 | – | –
Cn1nc(NC(=O)N2CCC(Oc3ccccc3)CC2)ccc1=O [Compound 67, N-(1-methyl-6-oxo-1,6-dihydropyridazin-3-yl)-4-phenoxypiperidine-1-carboxamide] | 3980 | 2100 | – | –
Cn1nc(NC(=O)N2CCC(Nc3cc(F)cc(Cl)c3)CC2)ccc1=O [Compound 93, 4-((3-chloro-5-fluorophenyl)amino)-N-(1-methyl-6-oxo-1,6-dihydropyridazin-3-yl)piperidine-1-carboxamide] | – | – | > 45000 | 15000
Cn1nc(NC(=O)N2CCC[C@@H](c3ccc(Cl)cc3)CC2)ccc1=O [Compound 31] | 39000 | > 45000 | – | –
Cc1ccccc1OC1CCN(C(=O)Nc2ccc(=O)n(C)n2)CC1 [Compound 72, N-(1-methyl-6-oxo-1,6-dihydropyridazin-3-yl)-4-(o-tolyloxy) piperidine-1-carboxamide] | 430 | 280 | – | –
Cn1nc(-c2nc(N3CCC(Cc4cccc(F)c4)CC3)no2)ccc1=O [Compound 114, 6-(3-(4-(3-fluorobenzyl)piperidin-1-yl)-1,2,4-oxadiazol-5-yl)-2-methylpyridazin-3(2H)-one] | – | 10 | – | –
Cn1nc(NC(=O)N2CCC(Cc3ccc(F)c(F)c3)CC2)ccc1=O [Compound 49, 4-(3,4-difluorobenzyl)-N-(1-methyl-6-oxo-1,6-dihydropyridazin-3-yl)piperidine-1-carboxamide] | 8100 | 430 | – | –
Cn1nc(NC(=O)N2CCC(Oc3cc(F)c(F)c(Cl)c3)CC2)ccc1=O [Compound 89, 4-(3-chloro-4,5-difluorophenoxy)-N-(1-methyl-6-oxo-1,6-dihydropyridazin-3-yl)piperidine-1-carboxamide] | 260 | 60 | – | –
